Legend:
[1] = target: T1, ΔF508-CFTR (Homo sapiens, UniProt P13569, DEL508-508); assay: CFTR cell surface levels using HRP-tagged ΔF508-CFTR expressing CFBE cells, intrinsic corrector capacity; type: cell-based; set-up: % Activation: concentration or dose not given beside the values; conditions: HRP-tagged ΔF508-CFTR expressing CFBE41o- cells, compound alone (intrinsic corrector capacity), 20 hours at 33° C.; for EC50: read-out: EC50
T1 construct: host or cells: CFBE41o-, doxycycline-inducible
Outline: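 Read-out: chemiluminescent HRP activity of ECL4-HRP-tagged ΔF508-CFTR at the cell surface, 15 min substrate in dark. Normalized as 100×(sample−DMSO)/(positive control−DMSO).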

[2] = target: T1, ΔF508-CFTR; assay: CFTR cell surface levels using HRP-tagged ΔF508-CFTR expressing CFBE cells, in the presence of a co-corrector; type: cell-based; conditions: HRP-tagged ΔF508-CFTR CFBE cells, in the presence of 3 μM co-corrector; for EC50: read-out: EC50
Outline: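 Chemiluminescent read-out of surface HRP (15 min, dark) after PBS washes. Activity is normalized as 100×(sample−DMSO)/(3 μM co-corrector alone−DMSO).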

T1 sequence (P13569 with tags, fused parts or gaps DEL508-508): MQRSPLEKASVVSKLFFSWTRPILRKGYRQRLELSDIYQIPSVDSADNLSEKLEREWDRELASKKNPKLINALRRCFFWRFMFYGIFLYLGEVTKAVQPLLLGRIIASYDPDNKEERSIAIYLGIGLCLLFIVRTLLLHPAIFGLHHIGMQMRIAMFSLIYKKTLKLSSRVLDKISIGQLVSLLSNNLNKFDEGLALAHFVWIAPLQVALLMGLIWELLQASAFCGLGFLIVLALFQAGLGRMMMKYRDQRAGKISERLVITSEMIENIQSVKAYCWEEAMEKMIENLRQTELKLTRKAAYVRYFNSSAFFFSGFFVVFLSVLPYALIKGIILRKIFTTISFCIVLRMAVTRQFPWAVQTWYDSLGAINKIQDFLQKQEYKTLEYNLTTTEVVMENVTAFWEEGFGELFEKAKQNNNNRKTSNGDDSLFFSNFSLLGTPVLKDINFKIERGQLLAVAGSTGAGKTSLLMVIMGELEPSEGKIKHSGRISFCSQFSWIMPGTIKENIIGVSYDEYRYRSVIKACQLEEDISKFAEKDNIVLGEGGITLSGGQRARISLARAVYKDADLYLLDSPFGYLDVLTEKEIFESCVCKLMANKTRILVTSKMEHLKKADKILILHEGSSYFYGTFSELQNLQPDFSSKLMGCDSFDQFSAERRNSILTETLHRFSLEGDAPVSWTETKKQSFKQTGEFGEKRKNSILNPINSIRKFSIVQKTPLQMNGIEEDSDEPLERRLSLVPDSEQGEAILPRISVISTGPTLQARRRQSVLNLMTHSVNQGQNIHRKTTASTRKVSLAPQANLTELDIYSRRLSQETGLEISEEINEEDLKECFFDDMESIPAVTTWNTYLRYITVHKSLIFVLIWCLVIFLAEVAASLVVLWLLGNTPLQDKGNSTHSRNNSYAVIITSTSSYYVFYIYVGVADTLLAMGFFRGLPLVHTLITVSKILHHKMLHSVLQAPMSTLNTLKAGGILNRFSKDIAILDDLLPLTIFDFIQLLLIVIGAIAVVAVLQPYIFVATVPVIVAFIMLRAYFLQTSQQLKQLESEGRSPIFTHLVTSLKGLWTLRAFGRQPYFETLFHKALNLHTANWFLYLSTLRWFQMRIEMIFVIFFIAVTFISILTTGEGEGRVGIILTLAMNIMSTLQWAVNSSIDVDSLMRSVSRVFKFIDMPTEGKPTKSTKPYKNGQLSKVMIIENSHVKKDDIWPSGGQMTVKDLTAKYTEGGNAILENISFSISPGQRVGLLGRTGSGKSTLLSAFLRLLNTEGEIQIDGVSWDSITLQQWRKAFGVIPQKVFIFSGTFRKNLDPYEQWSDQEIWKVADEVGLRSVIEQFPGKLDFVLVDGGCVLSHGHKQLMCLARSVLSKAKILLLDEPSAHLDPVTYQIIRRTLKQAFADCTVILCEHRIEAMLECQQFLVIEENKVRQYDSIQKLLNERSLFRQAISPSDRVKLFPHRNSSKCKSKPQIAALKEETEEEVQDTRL

SMILES | % Activation [1] [%] | EC50 [1] [nM] | % Activation [2] [%] | EC50 [2] [nM]
CS(=O)(=O)NC(=O)c1cc(N2CCC(N3CCOCC3)CC2)c2c(C3CCC3)nn(-c3ccc(C(F)(F)F)cc3)c2n1 [Compound 510, 3-cyclobutyl-N-(methanesulfonyl)-4-[4-(morpholin-4-yl)piperidin-1-yl]-1-[4-(trifluoromethyl)phenyl]-1H-pyrazolo[3,4-b]pyridine-6-carboxamide] | 234.9 | 298 | 428.8 | 171
CCCN(C)S(=O)(=O)NC(=O)c1cc(N2CCC(COC)CC2)c2c(C3CCC3)nn(-c3ccccc3)c2n1 [Compound 391, 3-cyclobutyl-4-[4-(methoxymethyl)piperidin-1-yl]-N-[methyl(propyl)sulfamoyl]-1-phenyl-1H-pyrazolo[3,4-b]pyridine-6-carboxamide] | 247.7 | 77.1 | 441.15 | 85.5
Cc1cccc(-n2nc(C3CCC3)c3c(N4CCC(N5CCOCC5)CC4)cc(C(=O)NS(=O)(=O)N(C)C)nc32)c1 [Compound 498, 3-cyclobutyl-N-(dimethylsulfamoyl)-1-(3-methylphenyl)-4-[4-(morpholin-4-yl)piperidin-1-yl]-1H-pyrazolo[3,4-b]pyridine-6-carboxamide] | 288.1 | 144 | 456.3 | 95.1
CCOC(=O)N1CCC(c2cc(C(=O)NS(=O)(=O)N(C)C)nc3c2c(C(C)C)nn3-c2ccc(F)cc2)CC1 [Compound 497, ethyl 4-{6-[(dimethylsulfamoyl)carbamoyl]-1-(4-fluorophenyl)-3-(propan-2-yl)-1H-pyrazolo[3,4-b]pyridin-4-yl}piperidine-1-carboxylate] | 195.7 | 410 | 378.25 | 288
CC(C)c1nn(-c2ccc(F)cc2)c2nc(C(=O)NS(C)(=O)=O)cc(OCCC3CCOCC3)c12 [Compound 285, 1-(4-fluorophenyl)-N-(methanesulfonyl)-4-[2-(oxan-4-yl)ethoxy]-3-(propan-2-yl)-1H-pyrazolo[3,4-b]pyridine-6-carboxamide] | 125.5 | 294 | 327.57 | 246
CCS(=O)(=O)NC(=O)c1cc(-c2cnc(N3CCOCC3)nc2)c2c(C(C)C)nn(-c3ccccc3)c2n1 [Compound 112, N-(ethanesulfonyl)-4-[2-(morpholin-4-yl)pyrimidin-5-yl]-1-phenyl-3-(propan-2-yl)-1H-pyrazolo[3,4-b]pyridine-6-carboxamide] | 254.85 | 699 | 472.8 | 884
CS(=O)(=O)NC(=O)c1cc(N2CCC3(CCCCC3)CC2)c2c(C3CCC3)nn(-c3ccccc3)c2n1 [Compound 222, 4-(3-azaspiro[5.5]undecan-3-yl)-3-cyclobutyl-N-(methanesulfonyl)-1-phenyl-1H-pyrazolo[3,4-b]pyridine-6-carboxamide] | 65.685 | 1420 | 247.3 | 1790
CCS(=O)(=O)NC(=O)c1cc(-c2ccc(N(C)C3CCOCC3)nc2)c2c(C(C)C)nn(C3CCCCC3)c2n1 [Compound 90, 1-cyclohexyl-N-(ethanesulfonyl)-4-{6-[methyl(oxan-4-yl)amino]pyridin-3-yl}-3-(propan-2-yl)-1H-pyrazolo[3,4-b]pyridine-6-carboxamide] | 163.75 | 486 | 384.95 | 389
CCS(=O)(=O)NC(=O)c1cc(-c2ccc(OC)cc2)c2c(C)nn(-c3cccc(C)c3)c2n1 [Compound 28, N-(ethanesulfonyl)-4-(4-methoxyphenyl)-3-methyl-1-(3-methylphenyl)-1H-pyrazolo[3,4-b]pyridine-6-carboxamide] | 149.7 | 1220 | 354.45 | 942
CC(C)c1nn(-c2cccc(N(C)C)c2)c2nc(C(=O)NS(C)(=O)=O)cc(N3CCCCC3)c12 [Compound 157, 1-[3-(dimethylamino)phenyl]-N-(methanesulfonyl)-4-(piperidin-1-yl)-3-(propan-2-yl)-1H-pyrazolo[3,4-b]pyridine-6-carboxamide] | 327.8 | 460 | 542.17 | 359
CC(C)c1nn(-c2cccc(N3CCOCC3)c2)c2nc(C(=O)NS(C)(=O)=O)cc(-c3cnc(N(C)C)nc3)c12 [Compound 29, 4-[2-(dimethylamino)pyrimidin-5-yl]-N-(methanesulfonyl)-1-[3-(morpholin-4-yl)phenyl]-3-(propan-2-yl)-1H-pyrazolo[3,4-b]pyridine-6-carboxamide] | 328.4 | 645 | 591.4 | 824
CN(C)S(=O)(=O)NC(=O)c1cc(-c2ccc(CCN3CCOCC3)cc2)c2c(C3CCC3)nn(C3CCCCC3)c2n1 [Compound 476, 3-cyclobutyl-1-cyclohexyl-N-(dimethylsulfamoyl)-4-{4-[2-(morpholin-4-yl)ethyl]phenyl}-1H-pyrazolo[3,4-b]pyridine-6-carboxamide] | 134.2 | 215 | 355.65 | 151
CN(C1CCOCC1)C1CCN(c2cc(C(=O)NS(=O)(=O)N(C)C)nc3c2c(C2CCC2)nn3-c2ccc(F)cc2)CC1 [Compound 528, 3-cyclobutyl-N-(dimethylsulfamoyl)-1-(4-fluorophenyl)-4-{4-[methyl(oxan-4-yl)amino]piperidin-1-yl}-1H-pyrazolo[3,4-b]pyridine-6-carboxamide] | 185.8 | 859 | 357.9 | 834
CC(C)c1nn(-c2ccccc2)c2nc(C(=O)NS(C)(=O)=O)cc(-c3cnc(N4CCOCC4)nc3)c12 [Compound 20, N-(methanesulfonyl)-4-[2-(morpholin-4-yl)pyrimidin-5-yl]-1-phenyl-3-(propan-2-yl)-1H-pyrazolo[3,4-b]pyridine-6-carboxamide] | 210.3 | 669 | 417.5 | 546
CCS(=O)(=O)NC(=O)c1cc(-c2ccc(N(C)C)nc2)c2c(C3CC3)nn(C3CCCCC3)c2n1 [Compound 92, 1-cyclohexyl-3-cyclopropyl-4-[6-(dimethylamino)pyridin-3-yl]-N-(ethanesulfonyl)-1H-pyrazolo[3,4-b]pyridine-6-carboxamide] | 175.77 | 553 | 367.67 | 278
CN(C)S(=O)(=O)NC(=O)c1cc(N2CCC(N3CCOCC3)CC2)c2c(C3CCC3)nn(-c3ccc(C(F)(F)F)cc3)c2n1 [Compound 500, 3-cyclobutyl-N-(dimethylsulfamoyl)-4-[4-(morpholin-4-yl)piperidin-1-yl]-1-[4-(trifluoromethyl)phenyl]-1H-pyrazolo[3,4-b]pyridine-6-carboxamide] | 137.5 | 173 | 330.05 | 84.2
CC(C)c1nn(-c2ccnc(N3CCOCC3)c2)c2nc(C(=O)NS(C)(=O)=O)cc(-c3ccc(N4CCC(C#N)CC4)nc3)c12 [Compound 227, 4-[6-(4-cyanopiperidin-1-yl)pyridin-3-yl]-N-(methanesulfonyl)-1-[2-(morpholin-4-yl)pyridin-4-yl]-3-(propan-2-yl)-1H-pyrazolo[3,4-b]pyridine-6-carboxamide] | 216.8 | 449 | 378.2 | 307
CC1(S(=O)(=O)NC(=O)c2cc(N3CCC(CN4CCCC4)CC3)c3c(C4CCC4)nn(-c4ccccc4)c3n2)CC1 [Compound 461, 3-cyclobutyl-N-(1-methylcyclopropane-1-sulfonyl)-1-phenyl-4-{4-[(pyrrolidin-1-yl)methyl]piperidin-1-yl}-1H-pyrazolo[3,4-b]pyridine-6-carboxamide] | 212.3 | 209 | 364.1 | 177
CCS(=O)(=O)NC(=O)c1cc(-c2ccc(N(C)C3CCOCC3)nc2)c2c(C(C)C)nn(-c3cccc(F)c3)c2n1 [Compound 224, N-(ethanesulfonyl)-1-(3-fluorophenyl)-4-{6-[methyl(oxan-4-yl)amino]pyridin-3-yl}-3-(propan-2-yl)-1H-pyrazolo[3,4-b]pyridine-6-carboxamide] | 228.8 | 544 | 453.1 | 482
CCS(=O)(=O)NC(=O)c1cc(N2CCC(COC)CC2)c2c(C3CCC3)nn(-c3ccccc3)c2n1 [Compound 403, 3-cyclobutyl-N-(ethanesulfonyl)-4-[4-(methoxymethyl)piperidin-1-yl]-1-phenyl-1H-pyrazolo[3,4-b]pyridine-6-carboxamide] | 389.2 | 30.2 | 507.35 | 25.6
CCS(=O)(=O)NC(=O)c1cc(-c2ccc(N3CCOCC3)nc2)c2c(C)nn(-c3ccc(F)cc3F)c2n1 [Compound 61, 1-(2,4-difluorophenyl)-N-(ethanesulfonyl)-3-methyl-4-[6-(morpholin-4-yl)pyridin-3-yl]-1H-pyrazolo[3,4-b]pyridine-6-carboxamide] | 184.35 | 1000 | 415.3 | 506
